target: T1, bradykinin 1 receptor (B1R) of the rat (Rattus norvegicus, UniProt P97583); assay: FLIPR Ca2+ assay, B1R antagonism, rat; type: cell-based; conditions: 10 μM test substance; CHO K1 cells with rat B1R gene (rB1R cells); Des-Arg9-bradykinin at EC80; % inhibition compared with the maximum achievable inhibition; 10 µM
T1 construct: expressed in transfected cells
T1 sequence (P97583 1-337): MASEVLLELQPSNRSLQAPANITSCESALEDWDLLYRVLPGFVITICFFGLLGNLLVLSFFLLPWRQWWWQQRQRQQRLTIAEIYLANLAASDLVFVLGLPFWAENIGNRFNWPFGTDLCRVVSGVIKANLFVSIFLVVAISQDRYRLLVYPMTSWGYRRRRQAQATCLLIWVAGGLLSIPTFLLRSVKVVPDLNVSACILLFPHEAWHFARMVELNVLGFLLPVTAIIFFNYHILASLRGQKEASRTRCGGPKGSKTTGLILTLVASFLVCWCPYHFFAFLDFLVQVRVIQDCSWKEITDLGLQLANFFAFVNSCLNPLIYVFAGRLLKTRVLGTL
Description: The agonistic or antagonistic action of substances can be quantified on the bradykinin 1 receptor (B1R) of the human and rat species with ectopically expressing cell lines (CHO K1 cells) and with the aid of a Ca^2+-sensitive dyestuff (Fluo-4) in a fluorescent imaging plate reader (FLIPR). The figure in % activation is based on the Ca^2+ signal after addition of Lys-Des-Arg^9-bradykinin (0.5 nM) or Des-Arg^9-bradykinin (100 nM). Antagonists lead to a suppression of the Ca^2+ inflow after addition of the agonist. % inhibition compared with the maximum achievable inhibition is stated.
The agonistic or antagonistic action of substances can be determined on the bradykinin 1 receptor (B1R) of the human and rat species with the following assay. In accordance with this assay, the Ca^2+ inflow through the channel is quantified with the aid of a Ca^2+-sensitive dyestuff (type Fluo-4, Molecular Probes Europe BV, Leiden, Holland) in a fluorescent imaging plate reader (FLIPR, Molecular Devices, Sunnyvale, USA).
Chinese hamster ovary cells (CHO K1 cells) transfected stably with the human B1R gene (hB1R cells) or the B1R gene of the rat (rB1R cells) are used. For functional studies, these cells are plated out on black 96-well plates with a clear base (BD Biosciences, Heidelberg, Germany or Greiner, Frickenhausen, Germany) in a density of 20,000-35,000 cells/well. The cells are left overnight at 37° C. and 5% CO2 in culture medium (hB1R cells: Nutrient Mixture Ham's F12, Gibco Invitrogen GmbH, Karlsruhe, Germany or DMEM, Sigma-Aldrich, Taufkirchen, Germany; rB1R cells: D-MEM/F12, Gibco Invitrogen GmbH, Karlsruhe, Germany) with 10 vol. % FBS (foetal bovine serum, Gibco Invitrogen GmbH, Karlsruhe, Germany or PAN Biotech GmbH, Aidenbach, Germany).
On the following day, the cells are loaded for 60 min at 37° C. with 2.13 μM Fluo-4 (Molecular Probes Europe BV, Leiden, Holland) in HBSS buffer (Hank's buffered saline solution, Gibco Invitrogen GmbH, Karlsruhe, Germany) with 2.5 mM probenecid (Sigma-Aldrich, Taufkirchen, Germany) and 10 mM HEPES (Sigma-Aldrich, Taufkirchen, Germany). The plates are then washed 2× with HBSS buffer, and HBSS buffer which additionally contains 0.1% BSA (bovine serum albumin; Sigma-Aldrich, Taufkirchen, Germany), 5.6 mM glucose and 0.05% gelatine (Merck KGaA, Darmstadt, Germany) is added. After a further incubation of 20 minutes at room temperature, the plates are inserted into the FLIPR for the Ca^2+ measurement.
Alternatively, the plates are washed with buffer A (15 mM HEPES, 80 mM NaCl, 5 mM KCl, 1.2 mM CaCl2, 0.7 mM MgSO4, 2 g/l glucose, 2.5 mM probenecid), buffer A is added and the plates are loaded with 2.5 μM Fluo-4 and 0.025% Pluronic F127 (Sigma-Aldrich, Taufkirchen, Germany). Thereafter, the cells are washed 2× with buffer A and incubated for 30 minutes with buffer A, which additionally contains 0.05% BSA and 0.05% gelatine, at room temperature and thereafter inserted into the FLIPR for the Ca^2+ measurement.
The Ca^2+-dependent fluorescence is measured here before and after addition of substances (λex=488 nm, λem=540 nm). Quantification is by measurement of the highest fluorescence intensity (FC, fluorescence counts) over time.
The FLIPR protocol consists of 2 additions of substance. Test substances (10 μM) are first pipetted on to the cells and the Ca^2+ inflow is compared with the control (hB1R: Lys-Des-Arg^9-bradykinin >=50 nM; rB1R: Des-Arg^9-bradykinin 10 μM). This gives the figure in % activation based on the Ca^2+ signal after addition of Lys-Des-Arg^9-bradykinin (>=50 nM) or Des-Arg^9-bradykinin (10 μM).
After incubation for 10-20 minutes, Lys-Des-Arg^9-bradykinin (hB1R) or Des-Arg^9-bradykinin (rB1R) in the concentration of the EC80 is applied and the inflow of Ca^2+ is likewise determined. Antagonists lead to a suppression of the Ca^2+ inflow. % inhibition compared with the maximum achievable inhibition is calculated. […]

In the case of `COc1cc(C)c(S(=O)(=O)N2CCCCC2CCOCC(=O)N2CCC(OCCN3CCCC3)(c3cccnc3)CC2)c(C)c1` (centres unmarked) [Example 124, 2-[2-[1-[(4-methoxy-2,6-dimethyl-phenyl)sulfonyl]-piperidin-2-yl]-ethoxy]-1-[4-pyridin-3-yl-4-(2-pyrrolidin-1-yl-ethoxy)-piperidin-1-yl]-ethanone], the “B1R antagonism, rat [10 μM] % inhibition” value is reported as 98%.

same assay, conditions: CHO-K1, 10 μM test substance; CHO K1 cells with rat B1R gene (rB1R cells); Des-Arg9-bradykinin at EC80; % inhibition compared with the maximum achievable inhibition; read-out: B1R antagonism, rat [10 μM] % inhibition

Going from `O=C(CC1CCCCN1S(=O)(=O)c1cccc(C(F)(F)F)c1)N1CCC(OCCN2CCCC2)(c2ccc(C(F)(F)F)cc2)CC1` (centres unmarked) [Example 73, 1-[4-(2-pyrrolidin-1-yl-ethoxy)-4-[4-(trifluoromethyl)-phenyl]-piperidin-1-yl]-2-[1-[[3-(trifluoromethyl)phenyl]sulfonyl]-piperidin-2-yl]-ethanone] to `Cc1cc(S(=O)(=O)N2CCCCC2CCC(=O)N2CCC(OCCN3CCCC3)(c3ccc(C(F)(F)F)cc3)CC2)c(C)cc1Cl` (centres unmarked) [Example 75, 3-[1-[(4-chloro-2,5-dimethyl-phenyl)sulfonyl]-piperidin-2-yl]-1-[4-(2-pyrrolidin-1-yl-ethoxy)-4-[4-(trifluoromethyl)-phenyl]-piperidin-1-yl]-propan-1-one], the inhibition at 10 µM falls from 100% to 96%.

First: Cc1cc(S(=O)(=O)N2CCCCC2CCC(=O)N2CCC(OCCN3CCCC3)(c3ccc(F)cc3)CC2)c(C)cc1Cl (centres unmarked) [Example 74, 3-[1-[(4-chloro-2,5-dimethyl-phenyl)sulfonyl]-piperidin-2-yl]-1-[4-(4-fluorophenyl)-4-(2-pyrrolidin-1-yl-ethoxy)-piperidin-1-yl]-propan-1-one]
Second: COc1cc(C)c(S(=O)(=O)N2CCCCC2CCCC(=O)N2CCC(OCCN3CCCC3)(c3ccc(F)cc3)CC2)c(C)c1 (centres unmarked) [Example 78, 1-[4-(4-fluorophenyl)-4-(2-pyrrolidin-1-yl-ethoxy)-piperidin-1-yl]-4-[1-[(4-methoxy-2,6-dimethyl-phenyl)sulfonyl]-piperidin-2-yl]-butan-1-one]
The inhibition at 10 µM of the first is lower: 92% for the first, 95% for the second.

Compared with `O=C(CC(NS(=O)(=O)c1ccc2ccccc2c1)c1ccccc1)N1CCC(OCCN2CCCC2)(c2ccc(F)cc2)CC1` (centres unmarked) [Example 76, N-[3-[4-(4-fluorophenyl)-4-(2-pyrrolidin-1-yl-ethoxy)-piperidin-1-yl]-3-oxo-1-phenyl-propyl]-naphthalene-2-sulfonic acid amide], `O=C(CC(NS(=O)(=O)c1ccc2ccccc2c1)c1ccccc1)N1CCC(OCCN2CCCC2)(c2ccc(C(F)(F)F)cc2)CC1` (centres unmarked) [Example 77, N-[3-oxo-1-phenyl-3-[4-(2-pyrrolidin-1-yl-ethoxy)-4-[4-(trifluoromethyl)-phenyl]-piperidin-1-yl]-propyl]-naphthalene-2-sulfonic acid amide] is higher in inhibition at 10 µM: 90% for the first, 94% for the second.

First: COc1cc(C)c(S(=O)(=O)N2CCCCC2CCCC(=O)N2CCC(OCCN3CCCC3)(c3ccc(C(F)(F)F)cc3)CC2)c(C)c1 (centres unmarked) [Example 79, 4-[1-[(4-methoxy-2,6-dimethyl-phenyl)sulfonyl]-piperidin-2-yl]-1-[4-(2-pyrrolidin-1-yl-ethoxy)-4-[4-(trifluoromethyl)-phenyl]-piperidin-1-yl]-butan-1-one]
Second: COc1cc(C)c(S(=O)(=O)N2CCCCC2CCOCC(=O)N2CCC(OCCN3CCCC3)(c3cccnc3)CC2)c(C)c1 (centres unmarked) [Example 123, 2-[2-[1-[(4-methoxy-2,6-dimethyl-phenyl)sulfonyl]-piperidin-2-yl]-ethoxy]-1-[4-pyridin-3-yl-4-(2-pyrrolidin-1-yl-ethoxy)-piperidin-1-yl]-ethanone]
The inhibition at 10 µM of the first is higher: 100% for the first, 96% for the second.

Going from `O=C(CCCC1CCCCN1S(=O)(=O)c1ccccc1C(F)(F)F)N1CCC(OCCN2CCCC2)(c2cccc(F)c2)CC1` (centres unmarked) [Example 86, 1-[4-(3-fluorophenyl)-4-(2-pyrrolidin-1-yl-ethoxy)-piperidin-1-yl]-4-[1-[[2-(trifluoromethyl)-phenyl]sulfonyl]-piperidin-2-yl]-butan-1-one] to `O=C(CCCC1CCCCN1S(=O)(=O)c1cccc2ccccc12)N1CCC(OCCN2CCCC2)(c2cccc(F)c2)CC1` (centres unmarked) [Example 93, 1-[4-(3-fluorophenyl)-4-(2-pyrrolidin-1-yl-ethoxy)-piperidin-1-yl]-4-[1-(naphthalen-1-ylsulfonyl)-piperidin-2-yl]-butan-1-one], the inhibition at 10 µM falls from 102% to 101%.

Compared with `O=C(CCCC1CCCCN1S(=O)(=O)c1cccc2ccccc12)N1CCC(OCCN2CCCC2)(c2cccnc2)CC1` (centres unmarked) [Example 92, 4-[1-(naphthalen-1-ylsulfonyl)-piperidin-2-yl]-1-[4-pyridin-3-yl-4-(2-pyrrolidin-1-yl-ethoxy)-piperidin-1-yl]-butan-1-one], `O=C(CCCC1CCCCN1S(=O)(=O)c1cccc2ccccc12)N1CCC(OCCN2CCCC2)(c2ccncc2)CC1` (centres unmarked) [Example 94, 4-[1-(naphthalen-1-ylsulfonyl)-piperidin-2-yl]-1-[4-pyridin-4-yl-4-(2-pyrrolidin-1-yl-ethoxy)-piperidin-1-yl]-butan-1-one] is lower in inhibition at 10 µM: 95% for the first, 59% for the second.

First: O=C(CCCC1CCCCN1S(=O)(=O)c1ccc2ccccc2c1)N1CCC(OCCN2CCCC2)(c2cccc(F)c2)CC1 (centres unmarked) [Example 96, 1-[4-(3-fluorophenyl)-4-(2-pyrrolidin-1-yl-ethoxy)-piperidin-1-yl]-4-[1-(naphthalen-2-ylsulfonyl)-piperidin-2-yl]-butan-1-one]
Second: O=C(COCC1COc2ccccc2N1S(=O)(=O)c1ccccc1C(F)(F)F)N1CCC(OCCN2CCCC2)(c2cccc(F)c2)CC1 (centres unmarked) [Example 111, 1-[4-(3-fluorophenyl)-4-(2-pyrrolidin-1-yl-ethoxy)-piperidin-1-yl]-2-[[4-[[2-(trifluoromethyl)-phenyl]sulfonyl]-3,4-dihydro-2H-[1,4]benzoxazin-3-yl]-methoxy]-ethanone]
The inhibition at 10 µM of the first is lower: 79% for the first, 101% for the second.

Going from `CS(=O)(=O)N(CCOCC(=O)N1CCC(OCCN2CCCC2)(c2cccnc2)CC1)C(c1ccccc1)c1ccccc1` [Example 104, N-benzhydryl-N-[2-[2-oxo-2-[4-pyridin-3-yl-4-(2-pyrrolidin-1-yl-ethoxy)-piperidin-1-yl]-ethoxy]-ethyl]-methanesulfonic acid amide] to `CS(=O)(=O)N(CCOCC(=O)N1CCC(OCCN2CCCC2)(c2cccc(F)c2)CC1)C(c1ccccc1)c1ccccc1` [Example 105, N-benzhydryl-N-[2-[2-[4-(3-fluorophenyl)-4-(2-pyrrolidin-1-yl-ethoxy)-piperidin-1-yl]-2-oxo-ethoxy]-ethyl]-methanesulfonic acid amide], the inhibition at 10 µM falls from 100% to 99%.

— patent US8318769B2, “Substituted sulfonamide compounds” (Gruenethal GmbH, priority 2008, dated 2012)
